This passage reports Ki results from ChEMBL document CHEMBL1142661, “Structure-based drug discovery using GPCR homology modeling: successful virtual screening for antagonists of the alpha1A adrenergic receptor” (J Med Chem, 2005).

A word on the Ki: it is a measure of affinity in units of concentration, obtained from inhibition or displacement. A higher Ki goes with lower affinity.

The target in this assay is T1, Alpha-1A adrenergic receptor (Homo sapiens, UniProt P35348).
T1 sequence (P35348 whole entry): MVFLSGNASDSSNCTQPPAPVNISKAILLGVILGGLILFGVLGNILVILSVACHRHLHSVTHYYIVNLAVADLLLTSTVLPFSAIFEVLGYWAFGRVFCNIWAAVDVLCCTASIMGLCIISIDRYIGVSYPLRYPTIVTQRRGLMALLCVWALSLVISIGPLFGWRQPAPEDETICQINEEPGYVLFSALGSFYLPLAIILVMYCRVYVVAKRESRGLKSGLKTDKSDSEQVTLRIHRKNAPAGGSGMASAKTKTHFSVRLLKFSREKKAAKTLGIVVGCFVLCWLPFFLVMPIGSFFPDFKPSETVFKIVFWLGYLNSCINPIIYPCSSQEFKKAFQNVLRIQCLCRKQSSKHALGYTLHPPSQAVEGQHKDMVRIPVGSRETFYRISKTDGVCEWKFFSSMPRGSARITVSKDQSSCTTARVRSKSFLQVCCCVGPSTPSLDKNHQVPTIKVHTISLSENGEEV
The assay can be described thus: Inhibition of [3H]prazosin binding to human adrenergic alpha-1A receptor expressed in CHO-K1 cell membranes.
Take `Clc1ccc(C2(Cn3ccnc3)OCC(CN3CCN(CCc4ccccc4)CC3)O2)c(Cl)c1` (centres undefined): affinity was put at a Ki of 300 nM.
The value for `COc1ccccc1N1CCN(CCCNc2cc(O)nc(Nc3c(Cl)cccc3Cl)n2)CC1` was 3.6 nM; that for `Nc1ccc(C(=O)NCCN2CCC(c3cccc4[nH]ccc34)CC2)cc1` was 9.5 nM; that for `O=C(NCCCCN1CCN(c2csc3cc(F)ccc23)CC1)c1cnccn1` was 1.4 nM.
